These results are taken from US10239868B2, “5-hydroxytryptamine receptor 7 activity modulators and their method of use” (TEMPLE UNIVERSITY OF THE COMMONWEALTH SYSTEM OF HIGHER …, priority 2013, dated 2019).

The structures appear in SMILES notation.

Chain of Serotonin 5HT7 receptors (P34969 whole entry): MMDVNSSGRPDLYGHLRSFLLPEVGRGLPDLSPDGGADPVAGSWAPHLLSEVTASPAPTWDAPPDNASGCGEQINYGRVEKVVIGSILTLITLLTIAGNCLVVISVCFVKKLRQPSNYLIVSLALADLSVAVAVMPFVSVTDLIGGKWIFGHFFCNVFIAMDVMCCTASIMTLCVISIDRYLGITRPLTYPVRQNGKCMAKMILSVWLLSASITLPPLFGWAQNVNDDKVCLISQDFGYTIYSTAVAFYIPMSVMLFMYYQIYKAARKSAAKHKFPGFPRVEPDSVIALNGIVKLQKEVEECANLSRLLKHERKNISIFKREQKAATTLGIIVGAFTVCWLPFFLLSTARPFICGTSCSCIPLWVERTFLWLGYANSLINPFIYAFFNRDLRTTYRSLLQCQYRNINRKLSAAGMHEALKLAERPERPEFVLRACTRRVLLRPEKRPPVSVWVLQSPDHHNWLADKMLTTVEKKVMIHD

This test concerns the target Serotonin 5HT7 receptors (Homo sapiens (Human), UniProt P34969). As to the kind of experiment: Radiolabel Binding Studies for Serotonin 5HT7 receptors.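 Further: displacement of a tritiated radioligand from membranes of stably transfected cells carrying recombinant 5-HT7 receptor, with filter-bound radioactivity measured by scintillation counting.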 The following applies: read-out: 5-HT7 % inhib @ 10 uM.
Experimental: Radiolabel Binding Studies for Serotonin 5HT7 Receptors, Method 1:
Eleven dilutions (5× assay concentration) of the compound of the disclosure and chlorpromazine are prepared in the Assay Buffer by serial dilution to yield final corresponding assay concentrations ranging from 10 pM to 10 μM.
A stock concentration of 5 nM [^3H]LSD (lysergic acid diethyl amide) is prepared in 50 mM Tris-HCl, 10 mM MgCl2, 1 mM EDTA, pH 7.4 (Assay Buffer). Aliquots (50 μl) of radioligand are dispensed into the wells of a 96-well plate containing 100 μl of Assay Buffer. Duplicate 50-μl aliquots of the compound of the disclosure test and chlorpromazine positive control reference compound serial dilutions are added.
Membrane fractions of cells expressing recombinant 5HT7 receptors (50 μL) are dispensed into each well. The membranes are prepared from stably transfected cell lines expressing 5HT7 receptors cultured on 10-cm plates by harvesting PBS-rinsed monolayers, resuspending and lysing in chilled, hypotonic 50 mM Tris-HCl, pH 7.4, centrifuging at 20,000×g, decanting the supernatant and storing at −80° C.; the membrane preparations are resuspended in 3 ml of chilled Assay Buffer and homogenized by several passages through a 26 gauge needle before using in the assay.
The 250-μl reactions are incubated at room temperature for 1.5 hours, then harvested by rapid filtration onto 0.3% polyethyleneimine-treated, 96-well filter mats using a 96-well Filtermate harvester. Four rapid 500-μl washes are performed with chilled Assay Buffer to reduce non-specific binding. The filter mats are dried, then scintillant is added to the filters and the radioactivity retained on the filters is counted in a Microbeta scintillation counter.
Raw data (dpm) representing total radioligand binding (i.e., specific+non-specific binding) are plotted as a function of the logarithm of the molar concentration of the competitor (i.e., test or reference compound).
On to `CCC1(CC)CC(CCN2CCN(c3ccc(O)cc3)CC2)OC1=O` (stereo not shown) [Entry 1], for which the inhibition at 10 µM stood at 95.9%.

In the case of `CCC1(CC)CC(CCN2CCN(c3ccc([N+](=O)[O-])cc3)CC2)OC1=O` (stereo not shown) [Entry 2], the inhibition at 10 µM amounted to 93.3%.

Take `CCC1(CC)CC(CCN2CCN(c3ccc(C#N)cc3)CC2)OC1=O` (stereo not shown) [Entry 3]: the inhibition at 10 µM was determined as 88.4%.

Turning to `CCC1(CC)CC(CCN2CCN(c3ccc(C)cc3)CC2)OC1=O` (stereo not shown) [Entry 4], the inhibition at 10 µM is 96.6%.

Turning to `CCC1(CC)CC(CCN2CCN(CCc3ccccc3)CC2)OC1=O` (stereo not shown) [Entry 5], the inhibition at 10 µM amounted to 53.1%.

For `CCC1(CC)CC(CCN2CCN(c3ccccc3O)CC2)OC1=O` (stereo not shown) [Entry 6], the inhibition at 10 µM amounted to 99.9%.

Regarding `CCC1(CC)CC(CCN2CCN(c3cccc(OC)c3)CC2)OC1=O` (stereo not shown) [Entry 7], the inhibition at 10 µM worked out at 94.8%.

As to `CCC1(CC)CC(CCN2CCN(c3cccc(O)c3)CC2)OC1=O` (stereo not shown) [Entry 8], the inhibition at 10 µM worked out at 93.6%.

For the compound `CCC1(CC)CC(CCN2CCN(c3ccccn3)CC2)OC1=O` (stereo not shown) [Entry 9], the inhibition at 10 µM was 101%.

Turning to `CCC1(CC)CC(CCN2CCN(c3c(C)cccc3C)CC2)OC1=O` (stereo not shown) [Entry 10], the inhibition at 10 µM came out at 70.4%.

For the compound `CCC1(CC)CC(CCN2CCN(c3ccccc3)CC2)OC1=O` (stereo not shown) [Entry 11], the inhibition at 10 µM amounted to 95.4%.

For `CCC1(CC)CC(CCN2CCN(c3ccc(N)cc3)CC2)OC1=O` (stereo not shown) [Entry 12], the inhibition at 10 µM worked out at 80.9%.

As to `CCC1(CC)CC(CCN2CCN(C3CCCCC3)CC2)OC1=O` (stereo not shown) [Entry 13], the inhibition at 10 µM was found to be 82.5%.

With `CCC1(CC)CC(CCN2CCN(c3ccccc3C(C)C)CC2)OC1=O` (stereo not shown) [Entry 14], the inhibition at 10 µM is 54.3%.

Regarding `CCC1(CC)CC(CCN2CCN(C(c3ccccc3)c3ccccc3)CC2)OC1=O` (stereo not shown) [Entry 15], the inhibition at 10 µM was found to be 58.4%.

For `CCC1(CC)CC(CCN2CCN(c3ccccc3C)CC2)OC1=O` (stereo not shown) [Entry 16], the inhibition at 10 µM is 58.2%.

In the case of `CCC1(CC)CC(CCN2CCN(c3ccc(C)cc3C)CC2)OC1=O` (stereo not shown) [Entry 17], the inhibition at 10 µM was determined as 56.2%.

Take `CCC1(CC)CC(CCN2CCc3ccccc3C2)OC1=O` (stereo not shown) [Entry 18]: the inhibition at 10 µM was 82%.

Regarding `COc1ccc(N2CCN(CCC3CC4(CCCCC4)C(=O)O3)CC2)cc1` (stereo not shown) [Entry 20], the inhibition at 10 µM worked out at 78.1%.

Turning to `O=C1OC(CCN2CCN(c3cccc(O)c3)CC2)CC12CCCCC2` (stereo not shown) [Entry 21], the inhibition at 10 µM is 86.8%.

As for `O=C1OC(CCN2CCN(c3ccccc3)CC2)CC12CCCCC2` (stereo not shown) [Entry 22], the inhibition at 10 µM came out at 98%.

With `COc1cccc(N2CCN(CCC3CC4(CCCCC4)C(=O)O3)CC2)c1` (stereo not shown) [Entry 23], the inhibition at 10 µM is 93.7%.

Regarding `COc1ccccc1N1CCN(CCC2CC3(CCCCC3)C(=O)O2)CC1` (stereo not shown) [Entry 24], the inhibition at 10 µM came to 90.7%.

Regarding `O=C1OC(CCN2CCN(c3ccccc3O)CC2)CC12CCCCC2` (stereo not shown) [Entry 25], the inhibition at 10 µM stood at 93.3%.

Consider `O=C1OC(CCN2CCN(c3ccccn3)CC2)CC12CCCCC2` (stereo not shown) [Entry 26], for which the inhibition at 10 µM is 97.4%.

In the case of `O=C1OC(CCN2CCN(c3ccccc3Cl)CC2)CC12CCCCC2` (stereo not shown) [Entry 27], the inhibition at 10 µM amounted to 97%.

For `O=C1OC(CCN2CCN(c3ccc(Cl)cc3)CC2)CC12CCCCC2` (stereo not shown) [Entry 28], the inhibition at 10 µM came to 98%.

Turning to `O=C1OC(CCN2CCN(c3ccc(C(F)(F)F)cc3)CC2)CC12CCCCC2` (stereo not shown) [Entry 29], the inhibition at 10 µM was found to be 96%.

As to `O=C1OC(CCN2CCN(c3ccncc3)CC2)CC12CCCCC2` (stereo not shown) [Entry 30], the inhibition at 10 µM amounted to 46.5%.

In the case of `O=C1OC(CCN2CCN(c3ccc(O)cc3)CC2)CC12CCCCC2` (stereo not shown) [Entry 31], the inhibition at 10 µM worked out at 54.1%.

As to `O=C1OC(CCN2CCN(c3cccnc3)CC2)CC12CCCCC2` (stereo not shown) [Entry 32], the inhibition at 10 µM worked out at 76.3%.

As for `N#Cc1ccc(N2CCN(CCC3CC4(CCCCC4)C(=O)O3)CC2)cc1` (stereo not shown) [Entry 33], the inhibition at 10 µM was found to be 83.4%.

Consider `N#Cc1ccc(N2CCN(CCC3CC4(CCCCC4)C(=O)O3)CC2)nc1` (stereo not shown) [Entry 34], for which the inhibition at 10 µM is 64.2%.

Turning to `O=C1OC(CCN2CCN(c3ccc(C(F)(F)F)cn3)CC2)CC12CCCCC2` (stereo not shown) [Entry 35], the inhibition at 10 µM is 91.1%.

As for `O=C1OC(CCN2CCN(c3ccc(Cl)cn3)CC2)CC12CCCCC2` (stereo not shown) [Entry 36], the inhibition at 10 µM is 96.7%.

With `CCC1(CC)CC(CCN2CCC(C(O)(c3ccccc3)c3ccccc3)CC2)OC1=O` (stereo not shown) [Entry 37], the inhibition at 10 µM was found to be 69%.

For the compound `CCC1(CC)CC(CCN2CCC(=C(c3ccccc3)c3ccccc3)CC2)OC1=O` (stereo not shown) [Entry 38], the inhibition at 10 µM was 96.5%.

For `CC(C)c1ccccc1N1CCN(CCC2CC3(CCCC3)C(=O)O2)CC1` (stereo not shown) [Entry 39], the inhibition at 10 µM is 96.1%.

For the compound `CC(C)(C)c1ccccc1N1CCN(CCC2CC3(CCCC3)C(=O)O2)CC1` (stereo not shown) [Entry 40], the inhibition at 10 µM amounted to 81.7%.

With `CC(C)c1cccc(C(C)C)c1N1CCN(CCC2CC3(CCCC3)C(=O)O2)CC1` (stereo not shown) [Entry 41], the inhibition at 10 µM amounted to 25.2%.

With `O=C1OC(CCN2CCN(c3ccccc3N3CCOCC3)CC2)CC12CCCC2` (stereo not shown) [Entry 42], the inhibition at 10 µM came out at 97.2%.

Turning to `CCC1(CC)CC(CCN2CCN(c3ccccc3OC)CC2)OC1=O` (stereo not shown) [Entry 43], the inhibition at 10 µM stood at 95.3%.

With `Cc1ccc(N2CCN(CC3CC(c4ccccc4)(c4ccccc4)C(=O)O3)CC2)cc1` (stereo not shown) [Entry 44], the inhibition at 10 µM stood at 40.8%.

As for `Cc1ccc(N2CCN(CCC3CC(c4ccccc4)(c4ccccc4)C(=O)O3)CC2)cc1` (stereo not shown) [Entry 45], the inhibition at 10 µM is 97.4%.

In the case of `Cc1ccc(N2CCN(CCCC3CC(c4ccccc4)(c4ccccc4)C(=O)O3)CC2)cc1` (stereo not shown) [Entry 46], the inhibition at 10 µM is 96.8%.

Turning to `CCC1(CC)CC(CCN2CCC(c3ccccc3)CC2)OC1=O` (stereo not shown) [Entry 47], the inhibition at 10 µM was 29.3%.
